Test results reported in patent publication US8628961B2, “Small molecule antagonists of phosphatidylinositol-3,4,5-triphosphate (PIP3) and uses thereof” (Tufts University, priority 2010, dated 2014).

Columns and labels:
[1] = tested on: PTEN-deficient U87MG cells; assay: Sytox cell death assay, U87MG re-expressing wild-type or R130M mutant PTEN; assay type: cell-based, human; conditions: 25, 50, 100 μM, 48 hr
Method: After treatment with 25, 50, or 100 μM PIT-1 for 48 hr, cell death was analyzed using Sytox cell death assay.
Based on the critical role of PIP3-dependent […] signaling in the regulation of cell survival, the effect of PIT-1 on the cancer cell viability was tested. Cancer cells were seeded into 96-well plates (white plates for ATP assay; black plates for fluorescent assay; clear plates for MTS assay) at the density of 5-10×10^3 cells per well in 100 μl of the appropriate media. Compounds were added at a series of concentrations and incubated for different times. For the ATP assay, a luminescence-based commercial kit (CellTiter-Glo, Promega, Madison, Wis.) was used. Thirty microliters of cell lysis/ATP detection reagent was added to each well, mixed for 10 min at room temperature, and the luminescence was measured using a Wallac Victor 3 plate reader (Perkin-Elmer, Wellesley, Mass.). […] Twenty microliters of the combined MTS/PMS solution was added into each well, incubated for 4 hr at 37° C., and the absorbance at 490 nm was measured using a Wallac Victor 3 plate reader. For the Sytox cell death assay, measuring loss of plasma membrane integrity, cells were incubated with 1 μM Sytox Green reagent (Molecular Probes, Eugene, Oreg.) for 30 min at 37° C. and the fluorescence intensity was measured using Wallac Victor 3 plate reader with excitation at 485 nm and emission at 545 nm. […]

[2] = tested on: U87MG cells; assay: Cell death with pan-caspase inhibitor zVAD.fmk, Sytox assay; assay type: cell-based, human; conditions: 100 μM zVAD.fmk
Method: FIG. 11 is a bar graph depicting that cell death triggered by PIT-1 alone or in combination with TRAIL is inhibited by pan-caspase inhibitor zVAD.fmk. U87MG cells were incubated with or without 100 μM zVAD.fmk together with PIT-1 (25, 50, 100 μM) in the presence or absence of 10 ng/ml TRAIL for 24 hr, and analyzed by Sytox cell death assay.
Since PI3K/PIP3/Akt signaling plays a critical role in the inhibition of apoptosis (Datta S R et al. (1999) Genes Dev 13:2905-27), the possibility that PITs induce apoptosis was examined. […] Proapoptotic Bcl-2 family members Bax and Bak are important mediators of apoptosis. Wei M C et al. (2001) Science 292:727-30. […] Non-apoptotic mechanisms of cell death may also play some additional, albeit less important, role in PIT-induced killing, as some cell death was still observed in Bax/Bak-deficient cells and in the presence of zVAD.fmk.

[3] = tested on: AMPK and ACC phosphorylation, LC3-II; assay: Metabolic stress and autophagy markers; assay type: cell-based, human
From the text: Changes in cell metabolism have emerged in recent years as an important component of PI3K/PIP3/Akt signaling, contributing to the regulation of cell viability and transformation by the PI3K/Akt pathway. Datta S R et al. (1999) Genes Dev 13:2905-27; Elstrom R L et al. (2004) Cancer Res 64:3892-9. Therefore, the possibility that PIT-1 may cause dysregulation of energy homeostasis and induction of the metabolic stress in cancer cells, which may contribute to the PIT-induced cell death, was investigated. […] Hardie D G (2007) Nat Rev Mol Cell Biol 8:774-85. […] Mathew R et al. (2007) Nat Rev Cancer 7:961-7. […] It is also consistent with the established role of Akt as an inhibitor of autophagy. […] Takeuchi H et al. (2005) Cancer Res 65:3336-46.

[4] = tested on: HUVEC cells; assay: HUVEC migration, wound healing and transwell assays; assay type: cell-based, human
Method: Two models of cell migration were used, a transwell migration model and a wound closure model. Migration of cancer and endothelial cells was evaluated using 24-transwell Boyden chamber (Costar, Bedford, Mass.) with a polystyrene membrane (6.5 mm diameter, 10 μm thickness, and 8 μm pore size). Cells were suspended in serum-free media and seeded in the upper compartment of each well (2×10^4 cells/well) in the presence or absence of different compounds at the indicated concentrations. The lower compartment contained 600 μl of serum-free culture media supplemented with growth factors. After an 8-hr incubation at 37° C., cells were fixed and stained with 0.1% crystal violet. Non-migrating cells on the upper surface of the filter were removed, and the stained cells that migrated to the lower side were photographed using a phase-contrast microscope (Nikon, Japan) in five random fields. The cells were lysed with 10% acetic acid, and colorimetric determination was made at 595 nm using Wallac Victor 3 plate reader.
Cancer or endothelial cells were seeded into fibronectin-coated 96-well plates (2×10^4 cells/well). […]
Second, HUVEC were serum starved and treated with PITs (25, 50 100 μM) or PIT-1 is (100 μM) for 8 hr, followed by bFGF (10 ng/ml) stimulation for 15 min. […] The number of cell ruffles/lamellipodia was counted in five random fields.

[5] = Solubility (aqueous, cell media); assay type: physicochemical
From the text: The size of the DM-PIT-1-loaded micelles was about 15 nm with a narrow size distribution.

For `O=C(NC(=S)Nc1cc([N+](=O)[O-])cc(Cl)c1O)c1ccccc1` [PIT-1], the “toxicity in U87MG lacking PTEN activity versus wild-type PTEN” value [1] was “more pronounced in PTEN-deficient U87MG cells lacking PTEN activity”, the “cell death, alone or with TRAIL, in presence of zVAD.fmk” value [2] was “inhibited by a pan-caspase inhibitor zVAD.fmk” and the “phosphorylation of ACC” value [3] was “Increased phosphorylation”. For the same compound, the “phosphorylation of AMPK” value [3] was “significant increase in the phosphorylation”, the “expression of autophagic marker LC3-II” value ([3]; U87MG cells) was “prominently increased the expression” and the “migration of HUVEC cells” value [4] was “efficiently blocked migration of HUVEC cells”. The aqueous solubility [5] was “limited aqueous solubility”.
